Data published in PubChem BioAssay AID1918939 (Molecular Pharmacology Branch, DTP, NCI, 2023).

System: 653999-131-R-J2-PDC complex spheroid viability
Assay: Anticancer human tumor 653999-131-R-J2-PDC patient-derived lung adenocarcinoma cell line growth inhibition
Details: for IC50: curve of first compound; for viability, T/C: stronger effect = lower value
How it was run: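 Drug combinations with the LSD1 inhibitor iadademstat tested on tumor cells co-cultured as spheroids with endothelial cells and mesenchymal stem cells. Concentrations descended in half-log increments from clinical Cmax or 10 microM.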

[1] = second compound 0.1 µM, first compound 0.0316 µM
[2] = second compound 0.1 µM, first compound 0.1 µM
[3] = second compound 0.1 µM, first compound 0.316 µM
[4] = second compound 0.1 µM, first compound 1 µM
[5] = second compound 0.1 µM, first compound 3.16 µM
[6] = second compound 0.1 µM, first compound 10 µM
[7] = second compound 0.316 µM, first compound 0.0316 µM
[8] = second compound 0.316 µM, first compound 0.1 µM
[9] = second compound 0.316 µM, first compound 0.316 µM
[10] = second compound 0.316 µM, first compound 1 µM
[11] = second compound 0.316 µM, first compound 3.16 µM
[12] = second compound 0.316 µM, first compound 10 µM
[13] = second compound 1 µM, first compound 0.0316 µM
[14] = second compound 1 µM, first compound 0.1 µM
[15] = second compound 1 µM, first compound 0.316 µM
[16] = second compound 1 µM, first compound 1 µM
[17] = second compound 1 µM, first compound 3.16 µM
[18] = second compound 1 µM, first compound 10 µM
[19] = second compound 3.16 µM, first compound 0.0316 µM
[20] = second compound 3.16 µM, first compound 0.1 µM
[21] = second compound 3.16 µM, first compound 0.316 µM
[22] = second compound 3.16 µM, first compound 1 µM
[23] = second compound 3.16 µM, first compound 3.16 µM
[24] = second compound 3.16 µM, first compound 10 µM
[25] = second compound 10 µM, first compound 0.0316 µM
[26] = second compound 10 µM, first compound 0.1 µM
[27] = second compound 10 µM, first compound 0.316 µM
[28] = second compound 10 µM, first compound 1 µM
[29] = second compound 10 µM, first compound 3.16 µM
[30] = second compound 10 µM, first compound 10 µM
[31] = second compound 0.1 µM, first compound 0.00949 µM
[32] = second compound 0.1 µM, first compound 0.03 µM
[33] = second compound 0.1 µM, first compound 0.0949 µM
[34] = second compound 0.1 µM, first compound 0.3 µM
[35] = second compound 0.316 µM, first compound 0.00949 µM
[36] = second compound 0.316 µM, first compound 0.03 µM
[37] = second compound 0.316 µM, first compound 0.0949 µM
[38] = second compound 0.316 µM, first compound 0.3 µM
[39] = second compound 1 µM, first compound 0.00949 µM
[40] = second compound 1 µM, first compound 0.03 µM
[41] = second compound 1 µM, first compound 0.0949 µM
[42] = second compound 1 µM, first compound 0.3 µM
[43] = second compound 3.16 µM, first compound 0.00949 µM
[44] = second compound 3.16 µM, first compound 0.03 µM
[45] = second compound 3.16 µM, first compound 0.0949 µM
[46] = second compound 3.16 µM, first compound 0.3 µM
[47] = second compound 10 µM, first compound 0.00949 µM
[48] = second compound 10 µM, first compound 0.03 µM
[49] = second compound 10 µM, first compound 0.0949 µM
[50] = second compound 10 µM, first compound 0.3 µM
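Also: spheroids exposed to agents for seven days before readout.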

CC1(C)CCC(CN2CCN(c3ccc(C(=O)NS(=O)(=O)c4ccc(NCC5CCOCC5)c([N+](=O)[O-])c4)c(Oc4cnc5[nH]ccc5c4)c3)CC2)=C(c2ccc(Cl)cc2)C1 + NC1CCC(NC2CC2c2ccccc2)CC1
IC50 (second compound 0.1 µM): 9330 nM
IC50 (second compound 0.316 µM): 8460 nM
IC50 (second compound 1 µM): 8730 nM
IC50 (second compound 3.16 µM): 7790 nM
IC50 (second compound 10 µM): > 10000 nM
viability, T/C [1]: 93.5%
viability, T/C [2]: 82.4%
viability, T/C [3]: 86.9%
viability, T/C [4]: 100%
viability, T/C [5]: 94.8%
viability, T/C [6]: 47.3%
viability, T/C [7]: 76.8%
viability, T/C [8]: 89.7%
viability, T/C [9]: 97.7%
viability, T/C [10]: 92%
viability, T/C [11]: 92.2%
viability, T/C [12]: 43.2%
viability, T/C [13]: 77%
viability, T/C [14]: 83.4%
viability, T/C [15]: 97.2%
viability, T/C [16]: 96.5%
viability, T/C [17]: 73.7%
viability, T/C [18]: 46.8%
viability, T/C [19]: 97.9%
viability, T/C [20]: 88.1%
viability, T/C [21]: 102%
viability, T/C [22]: 94.2%
viability, T/C [23]: 74.5%
viability, T/C [24]: 43.2%
viability, T/C [25]: 89%
viability, T/C [26]: 84.2%
viability, T/C [27]: 87.4%
viability, T/C [28]: 87.3%
viability, T/C [29]: 78.1%
viability, T/C [30]: 50%

CC1COCCN1c1cc(C2(S(C)(=N)=O)CC2)nc(-c2ccnc3[nH]ccc23)n1 (stereo not given) + NC1CCC(NC2CC2c2ccccc2)CC1
IC50 (second compound 0.1 µM): 736 nM
IC50 (second compound 0.316 µM): 832 nM
IC50 (second compound 1 µM): 840 nM
IC50 (second compound 3.16 µM): 674 nM
IC50 (second compound 10 µM): 698 nM
viability, T/C [1]: 104%
viability, T/C [2]: 81.3%
viability, T/C [3]: 63.7%
viability, T/C [4]: 46.4%
viability, T/C [5]: 32.8%
viability, T/C [6]: 34.1%
viability, T/C [7]: 94.1%
viability, T/C [8]: 80.1%
viability, T/C [9]: 73.8%
viability, T/C [10]: 45.5%
viability, T/C [11]: 30%
viability, T/C [12]: 31%
viability, T/C [13]: 102%
viability, T/C [14]: 81%
viability, T/C [15]: 67.4%
viability, T/C [16]: 46.3%
viability, T/C [17]: 34.1%
viability, T/C [18]: 28.2%
viability, T/C [19]: 101%
viability, T/C [20]: 89.4%
viability, T/C [21]: 68.9%
viability, T/C [22]: 39.1%
viability, T/C [23]: 33.6%
viability, T/C [24]: 32.3%
viability, T/C [25]: 103%
viability, T/C [26]: 66.4%
viability, T/C [27]: 72.5%
viability, T/C [28]: 43.8%
viability, T/C [29]: 30%
viability, T/C [30]: 27.4%

CCN(c1cc(-c2ccc(CN3CCOCC3)cc2)cc(C(=O)NCc2c(C)cc(C)[nH]c2=O)c1C)C1CCOCC1 + NC1CCC(NC2CC2c2ccccc2)CC1
IC50 (second compound 0.1 µM): > 3000 nM
IC50 (second compound 0.316 µM): > 3000 nM
IC50 (second compound 1 µM): > 3000 nM
IC50 (second compound 3.16 µM): > 3000 nM
IC50 (second compound 10 µM): > 3000 nM
viability, T/C [31]: 97.1%
viability, T/C [32]: 93%
viability, T/C [33]: 98.2%
viability, T/C [34]: 94.9%
viability, T/C (second compound 0.1 µM, first compound 0.949 µM): 80.8%
viability, T/C (second compound 0.1 µM, first compound 3 µM): 74.9%
viability, T/C [35]: 80.6%
viability, T/C [36]: 88.9%
viability, T/C [37]: 91.8%
viability, T/C [38]: 80.9%
viability, T/C (second compound 0.316 µM, first compound 0.949 µM): 87.6%
viability, T/C (second compound 0.316 µM, first compound 3 µM): 72.2%
viability, T/C [39]: 77.6%
viability, T/C [40]: 101%
viability, T/C [41]: 92.2%
viability, T/C [42]: 76.3%
viability, T/C (second compound 1 µM, first compound 0.949 µM): 70.2%
viability, T/C (second compound 1 µM, first compound 3 µM): 78.8%
viability, T/C [43]: 96.1%
viability, T/C [44]: 94.5%
viability, T/C [45]: 108%
viability, T/C [46]: 84%
viability, T/C (second compound 3.16 µM, first compound 0.949 µM): 76.6%
viability, T/C (second compound 3.16 µM, first compound 3 µM): 83.9%
viability, T/C [47]: 87.7%
viability, T/C [48]: 84.9%
viability, T/C [49]: 85.5%
viability, T/C [50]: 76%
viability, T/C (second compound 10 µM, first compound 0.949 µM): 70%
viability, T/C (second compound 10 µM, first compound 3 µM): 82.4%

Cn1ncnc1C1c2n[nH]c(=O)c3cc(F)cc(c23)NC1c1ccc(F)cc1 (stereo not given) + NC1CCC(NC2CC2c2ccccc2)CC1
IC50 (second compound 0.1 µM): > 100 nM
IC50 (second compound 0.316 µM): > 100 nM
IC50 (second compound 1 µM): > 100 nM
IC50 (second compound 3.16 µM): > 100 nM
IC50 (second compound 10 µM): > 100 nM
viability, T/C (second compound 0.1 µM, first compound 0.000316 µM): 86.9%
viability, T/C (second compound 0.1 µM, first compound 0.001 µM): 86.9%
viability, T/C (second compound 0.1 µM, first compound 0.00316 µM): 85.6%
viability, T/C (second compound 0.1 µM, first compound 0.01 µM): 73%
viability, T/C [1]: 80.9%
viability, T/C [2]: 71.4%
viability, T/C (second compound 0.316 µM, first compound 0.000316 µM): 85.4%
viability, T/C (second compound 0.316 µM, first compound 0.001 µM): 82.5%
viability, T/C (second compound 0.316 µM, first compound 0.00316 µM): 82.1%
viability, T/C (second compound 0.316 µM, first compound 0.01 µM): 87.2%
viability, T/C [7]: 73.9%
viability, T/C [8]: 86%
viability, T/C (second compound 1 µM, first compound 0.000316 µM): 95.6%
viability, T/C (second compound 1 µM, first compound 0.001 µM): 81.3%
viability, T/C (second compound 1 µM, first compound 0.00316 µM): 82.9%
viability, T/C (second compound 1 µM, first compound 0.01 µM): 74.9%
viability, T/C [13]: 75.9%
viability, T/C [14]: 78.1%
viability, T/C (second compound 3.16 µM, first compound 0.000316 µM): 94.6%
viability, T/C (second compound 3.16 µM, first compound 0.001 µM): 91.8%
viability, T/C (second compound 3.16 µM, first compound 0.00316 µM): 91.1%
viability, T/C (second compound 3.16 µM, first compound 0.01 µM): 87.3%
viability, T/C [19]: 76.7%
viability, T/C [20]: 72.1%
viability, T/C (second compound 10 µM, first compound 0.000316 µM): 96.9%
viability, T/C (second compound 10 µM, first compound 0.001 µM): 99.4%
viability, T/C (second compound 10 µM, first compound 0.00316 µM): 97.6%
viability, T/C (second compound 10 µM, first compound 0.01 µM): 84.5%
viability, T/C [25]: 72%
viability, T/C [26]: 78.2%

Nc1ncn(C2CC(O)C(CO)S2)c(=O)n1 (stereo not given) + NC1CCC(NC2CC2c2ccccc2)CC1
IC50 (second compound 0.1 µM): > 300 nM
IC50 (second compound 0.316 µM): > 300 nM
IC50 (second compound 1 µM): > 300 nM
IC50 (second compound 3.16 µM): > 300 nM
IC50 (second compound 10 µM): > 300 nM
viability, T/C (second compound 0.1 µM, first compound 0.000949 µM): 83.8%
viability, T/C (second compound 0.1 µM, first compound 0.003 µM): 109%
viability, T/C [31]: 90.8%
viability, T/C [32]: 74.8%
viability, T/C [33]: 70.4%
viability, T/C [34]: 50.6%
viability, T/C (second compound 0.316 µM, first compound 0.000949 µM): 86.6%
viability, T/C (second compound 0.316 µM, first compound 0.003 µM): 81.6%
viability, T/C [35]: 87.5%
viability, T/C [36]: 74.5%
viability, T/C [37]: 58%
viability, T/C [38]: 51.9%
viability, T/C (second compound 1 µM, first compound 0.000949 µM): 89.5%
viability, T/C (second compound 1 µM, first compound 0.003 µM): 94%
viability, T/C [39]: 86.3%
viability, T/C [40]: 78.7%
viability, T/C [41]: 67.8%
viability, T/C [42]: 55.5%
viability, T/C (second compound 3.16 µM, first compound 0.000949 µM): 99%
viability, T/C (second compound 3.16 µM, first compound 0.003 µM): 92%
viability, T/C [43]: 85.8%
viability, T/C [44]: 81.3%
viability, T/C [45]: 68.2%
viability, T/C [46]: 54.7%
viability, T/C (second compound 10 µM, first compound 0.000949 µM): 88.9%
viability, T/C (second compound 10 µM, first compound 0.003 µM): 112%
viability, T/C [47]: 88.8%
viability, T/C [48]: 84.7%
viability, T/C [49]: 63.7%
viability, T/C [50]: 58.6%
